The subject of data set [1] is Ebola VLP entry into HeLa cells. Description: microbe, parasite or virus in culture. The data set is classed as cell-based, Ebola virus. As to conditions: for IC50 / IC90 / Emax: Zaire ebolavirus, HeLa; for IC90: read-out: Block Ebola VLP entry IC90; for Emax: read-out: Block Ebola VLP entry Max. Inh.
The nature of a further data set: in vitro. As to conditions: human, Cytotoxicity IC50.
Where [2] appears, read: read-out: Block Ebola VLP entry IC50.
The mark [3] stands for this setting: read-out: IC50 of blocking Ebola VLP entry.

Usually IC50 stands for the concentration needed to halve the response being measured. A word on the IC90: it is the concentration at which the effect reaches the 90% level.

Where a name gives a salt, the structure may show the parent alone. Read-outs that look alike come from different tables or passages of the source.

Take `CCCSc1ccc2nc(NC(=O)OC)[nH]c2c1` [Albendazole]: in data set [1], the “Selectivity Index” value is given as above 102 fold, the IC90 is 20.7 µM and the Emax worked out at 76%. Further, the IC50 in data set [1] (setting [2]) was 4.9 µM. Moreover, the IC50 in data set [1] (setting [3]) is 4.8 µM. This compound returned an IC50 in “in vitro” above 500 µM.
On to `CCN(CCCc1ccccc1)CCCc1ccccc1` [Alverine Citrate], for which, in data set [1], the “Selectivity Index” value is given as above 58 fold, the IC90 was 21.8 µM and the Emax turned out to be 90%. In data set [1] (setting [2]), the IC50 stood at 8.63 µM. The same compound displayed a half-maximal inhibitory concentration (IC50) in “in vitro” above 500 µM.
In the same order, the values of `CCN(CC)Cc1cc(Nc2ccnc3cc(Cl)ccc23)ccc1O` [Amodiaquine] are above 113 fold, 27.3 µM, 106%, 4.43 µM and above 500 µM.
In the same order, the values of `CCN(CC)CCCN(c1ccccc1)C1Cc2ccccc2C1` [Aprindine] are above 65 fold, 26.6 µM, 93%, 7.69 µM and above 500 µM.
`O=C(CCN1CCN2CCCC2C1)N1c2ccccc2Sc2ccc(Cl)cc21` (centres unmarked) [Azaclorzine]: in data set [1], the “Selectivity Index” value is above 53 fold, the IC90 turned out to be 37.1 µM and the Emax worked out at 88%. Moreover, the IC50 in data set [1] (setting [2]) came out at 9.43 µM. This compound also gave an IC50 in the data set “in vitro” above 500 µM.
In the same order, the values of `CC[C@H]1OC(=O)[C@H](C)[C@@H](O[C@H]2C[C@@](C)(OC)[C@@H](O)[C@H](C)O2)[C@H](C)[C@@H](O[C@@H]2O[C@H](C)C[C@H](N(C)C)[C@H]2O)[C@](C)(O)C[C@@H](C)CN(C)[C@H](C)[C@@H](O)[C@]1(C)O` [Azithromycin] are above 179 fold, 15.8 µM, 100%, 2.79 µM and above 500 µM.
In turn, `Cc1c(-c2ccc(O)cc2)n(Cc2ccc(OCCN3CCCCCC3)cc2)c2ccc(O)cc12` [Bazedoxifene] registered an IC50 in “in vitro” of 43.2 µM.
`CN1[C@@H]2CC[C@H]1C[C@@H](OC(c1ccccc1)c1ccccc1)C2` [Benztropine]: in data set [1], the IC90 was determined as 8.25 µM and the Emax came out at 100%. Further, in “in vitro”, the half-maximal inhibitory concentration (IC50) is 250 µM.
For `Cc1ccc(C(=O)Oc2ccc(C(O)CNC(C)(C)C)cc2OC(=O)c2ccc(C)cc2)cc1` (centres unmarked) [Bitolterol], in data set [1], the “Selectivity Index” value came out at 41 fold, the IC90 was 22.6 µM and the Emax is 85%. Also, the IC50 in data set [1] (setting [2]) was found to be 6.11 µM. For the same compound, the IC50 in “in vitro” was 250 µM.
Regarding `COc1cc(Nc2c(C#N)cnc3cc(OCCCN4CCN(C)CC4)c(OC)cc23)c(Cl)cc1Cl` [Bosutinib], in data set [1], the “Selectivity Index” value amounted to 11 fold, the IC90 amounted to 21.3 µM and the Emax was 101%. Further, the half-maximal inhibitory concentration (IC50) in data set [1] (setting [2]) amounted to 3.85 µM. The compound further displayed an IC50 in “in vitro” of 43.2 µM.
In the same order, the values of `CC(C)C[C@H](NC(=O)[C@H](CCc1ccccc1)NC(=O)CN1CCOCC1)C(=O)N[C@@H](Cc1ccccc1)C(=O)N[C@@H](CC(C)C)C(=O)[C@@]1(C)CO1` [Carfilzomib] are above 1156 fold, 1.88 µM, 57%, 0.432 µM and above 500 µM.
Turning to `COc1ccc2cc1Oc1ccc(cc1)C[C@H]1c3c(cc4c(c3Oc3cc5c(cc3OC)CCN(C)[C@@H]5C2)OCO4)CCN1C` [Cepharanthine], in data set [1], the “Selectivity Index” value came out at 58 fold, the IC90 came to 4.4 µM and the Emax amounted to 112%. The IC50 in data set [1] (setting [2]) stood at 1.53 µM. Moreover, in “in vitro”, the IC50 was found to be 88.9 µM.
In the same order, the values of `CCN(CC)CCCC(C)Nc1ccnc2cc(Cl)ccc12` (centres unmarked) [Chloroquine] are above 32 fold, 133 µM, 98%, 15.3 µM and above 500 µM.
For the compound `CC[C@H]1OC(=O)[C@H](C)[C@@H](O[C@H]2C[C@@](C)(OC)[C@@H](O)[C@H](C)O2)[C@H](C)[C@@H](O[C@@H]2O[C@H](C)C[C@H](N(C)C)[C@H]2O)[C@](C)(OC)C[C@@H](C)C(=O)[C@H](C)[C@@H](O)[C@]1(C)O` [Clarithromycin], in data set [1], the “Selectivity Index” value is recorded as above 110 fold, the IC90 is 15.1 µM and the Emax was found to be 100%. Further, the IC50 in data set [1] (setting [2]) was found to be 4.53 µM. In the data set “in vitro”, this compound registered an IC50 above 500 µM.
Consider `CN(C)CCCN1c2ccccc2CCc2ccc(Cl)cc21` [Clomipramine], for which, in data set [1], the IC90 worked out at 11.7 µM and the Emax amounted to 93%. Moreover, in the data set “in vitro”, the IC50 worked out at 64.1 µM.
In the same order, the values of `COc1cc2c(c(OC)c1OC)-c1ccc(OC)c(=O)cc1[C@@H](NC(C)=O)CC2` [Colchicine] are 0.354 µM, 73% and above 500 µM.
Take `CC1CCCCN1CCCOC(=O)c1ccc(OC2CCCCC2)cc1` (centres unmarked) [Cyclomethycaine]: in data set [1], the “Selectivity Index” value is recorded as above 65 fold, the 90% effect concentration (IC90) is 19.6 µM and the Emax was determined as 86%. The half-maximal inhibitory concentration (IC50) in data set [1] (setting [2]) worked out at 7.69 µM. The compound further showed an IC50 in the data set “in vitro” above 500 µM.
In the same order, the values of `COc1cccc2c1C(=O)c1c(O)c3c(c(O)c1C2=O)C[C@@](O)(C(C)=O)C[C@@H]3O[C@H]1C[C@H](N)[C@H](O)[C@H](C)O1` [Daunomycin] are above 190 fold, 5.4 µM, 98%, 2.63 µM and above 500 µM.
For `C[C@H]1O[C@@H](O[C@H]2CC[C@@]3(C)[C@H](CC[C@@H]4[C@@H]3C[C@@H](O)[C@]3(C)[C@@H](C5=CC(=O)OC5)CC[C@]43O)C2)C[C@H](O)[C@@H]1O[C@H]1C[C@H](O)[C@H](O[C@H]2C[C@H](O)[C@H](O[C@@H]3O[C@H](CO)[C@@H](O)[C@H](O)[C@H]3O)[C@@H](C)O2)[C@@H](C)O1` [Deslanoside], in data set [1], the “Selectivity Index” value was 515 fold, the IC90 amounted to 11.7 µM and the Emax is 66%. Besides, in data set [1] (setting [2]), the IC50 turned out to be 0.485 µM. Moreover, in “in vitro”, the IC50 was found to be 250 µM.
In the same order, the values of `CCCCc1oc2ccc(NS(C)(=O)=O)cc2c1C(=O)c1ccc(OCCCN(CCCC)CCCC)cc1` [Dronedarone] are 21 fold, 3.51 µM, 81%, 2.2 µM and 48 µM.
With `COc1cc2ncnc(Nc3ccc(F)c(Cl)c3)c2cc1OCCCN1CCOCC1` [Gefitinib], in data set [1], the IC90 was determined as 17.9 µM.
With `CN(C)CCCN1c2ccccc2CCc2ccccc21` [Imipramine], the IC50 in the data set “in vitro” is above 500 µM.
`CO[C@@H]1[C@@H](OC)[C@H](C)[C@@](O)(CC(=O)O)O[C@H]1[C@H](C)[C@H]1O[C@@]2(CC[C@@](C)([C@H]3CC[C@@](C)([C@@H]4O[C@@H]([C@H]5O[C@](C)(O)[C@H](C)C[C@@H]5C)C[C@@H]4O[C@@H]4C[C@H](OC)[C@@H](OC)[C@H](C)O4)O3)O2)C[C@H](O)[C@H]1C` [Maduramicin]: in data set [1], the “Selectivity Index” value was 40 fold, the IC90 was 3.94 µM and the Emax is 104%. Also, the IC50 in data set [1] (setting [2]) came out at 0.611 µM. In the data set “in vitro”, half-maximal inhibition (IC50) required 24.3 µM.
On to `CNCCCC12CCC(c3ccccc31)c1ccccc12` [Maprotiline], for which, in data set [1], the IC90 worked out at 12.1 µM and the Emax was 100%. The compound also gave an IC50 in “in vitro” of 146 µM.
With `COC(=O)Nc1nc2ccc(C(=O)c3ccccc3)cc2[nH]1` [Mebendazole], in data set [1], the “Selectivity Index” value is above 145 fold, the IC90 stood at 14 µM and the Emax was 88%. For the same compound, in data set [1] (setting [2]), the IC50 came to 3.44 µM. Also, the IC50 in data set [1] (setting [3]) was determined as 3.4 µM. This compound also had an IC50 in “in vitro” above 500 µM.
In the case of `OC(c1cc(C(F)(F)F)nc2c(C(F)(F)F)cccc12)C1CCCCN1` (centres unmarked) [Mefloquine], in data set [1], the “Selectivity Index” value turned out to be 16 fold, the IC90 is 13 µM and the Emax came to 94%. The IC50 in data set [1] (setting [2]) was found to be 2.73 µM. The compound further yielded an IC50 in the data set “in vitro” of 43.2 µM.
Regarding `COCC(=O)O[C@]1(CCN(C)CCCc2nc3ccccc3[nH]2)CCc2cc(F)ccc2[C@@H]1C(C)C` [Mibefradil], in data set [1], the “Selectivity Index” value turned out to be 10 fold, the 90% effect concentration (IC90) is 7.34 µM and the Emax was determined as 96%. Besides, the IC50 in data set [1] (setting [2]) was determined as 4.32 µM. Further, in the data set “in vitro”, the IC50 came out at 43.2 µM.
With `O=C(Nc1ccc([N+](=O)[O-])cc1Cl)c1cc(Cl)ccc1O` [Niclosamide], in data set [1], the “Selectivity Index” value was above 188 fold, the IC90 stood at 6.6 µM and the Emax was found to be 81%. The half-inhibitory concentration (IC50) in data set [1] (setting [2]) worked out at 2.66 µM. The IC50 in the data set “in vitro” was above 500 µM.
In the case of `Cc1cn(-c2cc(NC(=O)c3ccc(C)c(Nc4nccc(-c5cccnc5)n4)c3)cc(C(F)(F)F)c2)cn1` [Nilotinib], in data set [1], the “Selectivity Index” value was 2 fold, the IC90 amounted to 104 µM and the Emax was found to be 100%. Also, the IC50 in data set [1] (setting [2]) turned out to be 24.3 µM. For the same compound, the IC50 in data set [1] (setting [3]) worked out at 15.3 µM. In “in vitro”, this compound returned a 50% inhibitory concentration (IC50) of 50.1 µM.
Take `COC(=O)Nc1nc2ccc(C(=O)c3cccs3)cc2[nH]1` [Nocodazole]: in data set [1], the “Selectivity Index” value is on record as above 1242 fold, the IC90 came out at 1.04 µM and the Emax turned out to be 87%. Besides, the IC50 in data set [1] (setting [2]) was determined as 0.402 µM. In addition, in data set [1] (setting [3]), the IC50 was determined as 0.4 µM. The IC50 in “in vitro” is above 500 µM.
Regarding `CCCOc1ccc2nc(NC(=O)OC)[nH]c2c1` [Oxibendazole], in data set [1], the “Selectivity Index” value is reported as above 291 fold, the IC90 worked out at 3.75 µM and the Emax worked out at 57%. Also, the half-maximal inhibitory concentration (IC50) in data set [1] (setting [2]) amounted to 1.72 µM. In the data set “in vitro”, this compound had an IC50 above 500 µM.
In the same order, the values of `CC(=O)c1ccc2c(c1)N(CCCN1CCC(CCO)CC1)c1ccccc1S2` [Piperacetazine] are above 52 fold, 18.1 µM, 90%, 9.68 µM and above 500 µM.
As to `CN[C@H]1CC[C@@H](c2ccc(Cl)c(Cl)c2)c2ccccc21` [Zoloft, sertraline], the 90% effect concentration (IC90) in data set [1] was found to be 9.08 µM.
For Maraviroc, in data set [1], the “Activity in the Ebola VLP assay” value is reported as “not active”.

The values are drawn from PMC4317638 (Emerging Microbes & Infections, 2014).
